Measurements reported in US20100152129A1 (priority 2008, published 2010).

Test system: Panc-1 cell line
Test: Gene expression profile using RTQ-PCR
Type: cell-based
Conditions: Panc1, RTQ-PCR
Procedure: The objective of the experiment was to evaluate the synergistic effect of drug combination (Gemcitabine with […]) as compared to individual use of the same. The synergistic effect of the compound or drug combination in the Panc-1 cell line was measured in terms of gene expression and expressed as fold changes as compared to the cell control with no drug treatment. Methodology: Cell lines treated with drugs (Gemcitabine, […] or both) were used for total RNA isolation using a commercial RNA extraction kit (Qiagen Corporation, Germany). […] This was followed by real time quantitative polymerase chain reaction (RTQ PCR) using gene specific primers and standard thermal program of initial denaturation at 95° C. for 5 mins and 40 cycles of 95° C. for 10 seconds, followed by […] for 30 seconds (Realplex PCR machine from Eppendorf, Germany). Quantitative measurement of products made during PCR cycles was normalized against a housekeeping gene (Actin) and used to measure the gene expression as fold changes as compared to respective control (FIG. 5).

Row | Compound | CDK2 gene expression vs control cells with no drug treatment | CDK4 gene expression vs control cells with no drug treatment | CDK6 gene expression vs control cells with no drug treatment | CDK8 gene expression vs control cells with no drug treatment | DDIT4 gene expression vs control cells with no drug treatment | RRM1 gene expression vs control cells with no drug treatment | RRM2 gene expression vs control cells with no drug treatment | p14 gene expression vs control cells with no drug treatment | p18 gene expression vs control cells with no drug treatment | p27 gene expression vs control cells with no drug treatment
1 | CN1CC[C@@H](c2c(O)cc(O)c3c(=O)cc(-c4ccccc4Cl)oc23)[C@@H]1CO.Cl | −0.21 log 2 fold ratio | −0.44 log 2 fold ratio | −0.23 log 2 fold ratio | 0.11 log 2 fold ratio | −1.88 log 2 fold ratio | 0.18 log 2 fold ratio | 0.16 log 2 fold ratio | −0.50 log 2 fold ratio | −0.17 log 2 fold ratio | −0.60 log 2 fold ratio
2 | Nc1ccn([C@@H]2O[C@H](CO)[C@@H](O)C2(F)F)c(=O)n1 [drawing 10] | 0.50 log 2 fold ratio | −0.93 log 2 fold ratio | −0.53 log 2 fold ratio | 0.86 log 2 fold ratio | 1.01 log 2 fold ratio | 0.25 log 2 fold ratio | – | −0.17 log 2 fold ratio | 1.06 log 2 fold ratio | −0.16 log 2 fold ratio
3 | CC[C@H](CO)Nc1nc(NCc2ccccc2)c2ncn(C(C)C)c2n1 [drawing 11] | 0.29 log 2 fold ratio | −0.06 log 2 fold ratio | 0.75 log 2 fold ratio | 0.82 log 2 fold ratio | −0.84 log 2 fold ratio | 0.11 log 2 fold ratio | 0.63 log 2 fold ratio | −0.05 log 2 fold ratio | 0.56 log 2 fold ratio | −0.04 log 2 fold ratio
4 | CN1CC[C@@H](c2c(O)cc(O)c3c(=O)cc(-c4ccc(C(F)(F)F)cc4Cl)oc23)[C@@H]1CO.Cl [drawing 12] | 0.96 log 2 fold ratio | 0.73 log 2 fold ratio | 1.48 log 2 fold ratio | 0.20 log 2 fold ratio | −0.31 log 2 fold ratio | −0.24 log 2 fold ratio | 0.04 log 2 fold ratio | −0.59 log 2 fold ratio | −0.12 log 2 fold ratio | −0.30 log 2 fold ratio
5 | CN1CCC(c2c(O)cc(O)c3c(=O)cc(-c4ccccc4Cl)oc23)C(O)C1 (stereo not drawn) [drawing 14] | 0.74 log 2 fold ratio | 0.49 log 2 fold ratio | 1.31 log 2 fold ratio | −0.99 log 2 fold ratio | −4.21 log 2 fold ratio | 0.03 log 2 fold ratio | 0.38 log 2 fold ratio | −0.10 log 2 fold ratio | −1.14 log 2 fold ratio | −0.01 log 2 fold ratio

Same assay, conditions: Panc1, RTQ-PCR

Row | Compound | DLG5 gene expression vs control cells with no drug treatment | E2F1 gene expression vs control cells with no drug treatment | MAPK1 gene expression vs control cells with no drug treatment | PDCD2 gene expression vs control cells with no drug treatment | POLB gene expression vs control cells with no drug treatment | PTK7 gene expression vs control cells with no drug treatment | PTN gene expression vs control cells with no drug treatment | RASA1 gene expression vs control cells with no drug treatment | REV3L gene expression vs control cells with no drug treatment | SSTR2 gene expression vs control cells with no drug treatment
6 | Nc1ccn([C@@H]2O[C@H](CO)[C@@H](O)C2(F)F)c(=O)n1 [drawing 1] | −0.53 log 2 fold ratio | 0.98 log 2 fold ratio | −0.18 log 2 fold ratio | −1.27 log 2 fold ratio | −0.94 log 2 fold ratio | −0.53 log 2 fold ratio | 0.68 log 2 fold ratio | −0.04 log 2 fold ratio | −0.28 log 2 fold ratio | −1.17 log 2 fold ratio
7 | CC[C@H](CO)Nc1nc(NCc2ccccc2)c2ncn(C(C)C)c2n1 [drawing 2] | −0.71 log 2 fold ratio | 0.03 log 2 fold ratio | −0.29 log 2 fold ratio | −0.05 log 2 fold ratio | −0.26 log 2 fold ratio | 0.11 log 2 fold ratio | −0.28 log 2 fold ratio | −0.41 log 2 fold ratio | −0.27 log 2 fold ratio | −0.37 log 2 fold ratio
8 | CN1CC[C@@H](c2c(O)cc(O)c3c(=O)cc(-c4ccc(C(F)(F)F)cc4Cl)oc23)[C@@H]1CO.Cl [drawing 3] | −1.01 log 2 fold ratio | −0.43 log 2 fold ratio | 0.64 log 2 fold ratio | 0.77 log 2 fold ratio | −0.05 log 2 fold ratio | 0.30 log 2 fold ratio | 0.40 log 2 fold ratio | 0.10 log 2 fold ratio | −0.13 log 2 fold ratio | −0.69 log 2 fold ratio
9 | CN1CCC(c2c(O)cc(O)c3c(=O)cc(-c4ccccc4Cl)oc23)C(O)C1 (stereo not drawn) [drawing 5] | −1.19 log 2 fold ratio | −0.62 log 2 fold ratio | −2.31 log 2 fold ratio | 0.50 log 2 fold ratio | 0.34 log 2 fold ratio | 0.16 log 2 fold ratio | −0.24 log 2 fold ratio | −1.10 log 2 fold ratio | −1.42 log 2 fold ratio | −2.98 log 2 fold ratio

Same assay, conditions: Panc1, RTQ-PCR

Row | Compound | STAT4 gene expression vs control cells with no drug treatment
10 | Nc1ccn([C@@H]2O[C@H](CO)[C@@H](O)C2(F)F)c(=O)n1 [drawing 1] | −0.54 log 2 fold ratio
11 | CC[C@H](CO)Nc1nc(NCc2ccccc2)c2ncn(C(C)C)c2n1 [drawing 2] | −1.66 log 2 fold ratio
12 | CN1CC[C@@H](c2c(O)cc(O)c3c(=O)cc(-c4ccc(C(F)(F)F)cc4Cl)oc23)[C@@H]1CO.Cl [drawing 3] | −1.52 log 2 fold ratio
13 | CN1CCC(c2c(O)cc(O)c3c(=O)cc(-c4ccccc4Cl)oc23)C(O)C1 (stereo not drawn) [drawing 5] | −1.39 log 2 fold ratio
